These results are taken from US20090163523A1, “Combinations comprising a s1p receptor agonist and a jak3 kinase inhibitor” (priority 2004, published 2009).

The test system of the assay is donor heart graft. The experiment in a line: Rat heart transplantation, graft survival. Format: in vivo. Conditions: 672 h; rat heart transplant; blood concentration; read-out: EC50 (drug concentration in blood at which 50% of the animals maintain their graft for >28 days). On the procedure: The aorta is ligated and divided distal to the first branch and the brachiocephalic trunk is divided at the first bifurcation. The left pulmonary artery is ligated and divided and the right side divided but left open. All other vessels are dissected free, ligated and divided and the donor heart is removed into iced saline.
The recipient is prepared by dissection and cross-clamping of the infra-renal abdominal aorta and vena cava. The graft is implanted with end-to-side anastomoses, using 10/0 monofilament suture, between the donor brachiocephalic trunk and the recipient aorta and the donor right pulmonary artery to the recipient vena cava. The clamps are removed, the graft tethered retroabdominally, the abdominal contents washed with warm saline and the animal is closed and allowed to recover under a heating lamp. Graft survival is monitored by daily palpation of the beating donor heart through the abdominal wall. Rejection is considered to be complete when heart beat stops.

In brackets after ≈: the same amount, converted by molar mass.

For `C[C@@H]1CCN(C(=O)CC#N)C[C@@H]1N(C)c1ncnc2[nH]ccc12` [CP-690,550 mono-citrate, 3-{(3R,4R)-4-methyl-3-[methyl-(7H-pyrrolo[2,3-d]pyrimidin-4-yl)-amino]-piperidin-1-yl}-3-oxo-propionitrile], the EC50 is 0.06 µg/mL (≈ 0.192 µM).
